Laboratory results reported in BindingDB's records for patent US20240034729 (Wuhan Ll Science and Technology Development, 2024).

Target: T1, P2X purinoceptor 3 (Homo sapiens, UniProt P56373)
T1 sequence (P56373 whole entry): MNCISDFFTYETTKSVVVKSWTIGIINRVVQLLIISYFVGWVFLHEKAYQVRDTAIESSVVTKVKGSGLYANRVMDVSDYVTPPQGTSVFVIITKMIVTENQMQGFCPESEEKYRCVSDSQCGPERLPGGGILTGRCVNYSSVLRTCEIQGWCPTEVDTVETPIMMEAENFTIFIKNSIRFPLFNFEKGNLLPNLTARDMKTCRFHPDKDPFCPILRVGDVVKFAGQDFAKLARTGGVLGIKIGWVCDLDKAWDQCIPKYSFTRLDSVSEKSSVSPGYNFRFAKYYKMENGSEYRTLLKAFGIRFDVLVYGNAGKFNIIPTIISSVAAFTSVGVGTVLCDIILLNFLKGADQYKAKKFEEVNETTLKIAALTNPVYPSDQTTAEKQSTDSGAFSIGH
Assay: Evaluation of In Vitro Biological Activity
Experimental: Each well was added with 10 μL of test compound (which was dissolved in DMSO at a concentration of 10 mM and serially diluted with buffer) or vehicle, and then was left to equilibrate for 30 min at room temperature.

| Structure (SMILES) | IC50 [µM] |
| --- | --- |
| COC(=O)N1CCO[C@@H](Cc2c(-c3c(F)cc(C#N)cc3F)nc3cc(C)ccn23)C1 [US20240034729, Compound 6] | < 1 |
| COC(=O)N1CCO[C@@H](Cc2c(-c3c(F)cc(-c4ncccn4)cc3F)nc3cc(C)ccn23)C1 [US20240034729, Compound 18] | < 1 |
| COC(=O)N1CCO[C@@H](Cc2c(-c3c(F)cc(NC(=O)/C=C/C(N)=O)cc3F)nc3cc(C)ccn23)C1 [US20240034729, Compound 29] | < 0.01 |
| CCC(=O)N1CCO[C@@H](Cc2c(-c3c(F)cc(-c4ncc[nH]4)cc3F)nc3cc(C)ccn23)C1 [US20240034729, Compound 52] | < 0.01 |
| COC(=O)N1CCO[C@@H](Cc2c(-c3c(F)cc(-n4cnnn4)cc3F)nc3cc(C)ccn23)C1 [US20240034729, Compound 58] | < 0.01 |
| COC(=O)N1CCO[C@@H](Cc2c(-c3c(F)cc(-c4nc(C5(C(=O)O)CC5)c[nH]4)cc3F)nc3cc(C)ccn23)C1 [US20240034729, Compound 59] | < 0.01 |
| COC(=O)N1CCO[C@@H](Cc2c(-c3c(F)cc(CC(N)=O)cc3F)nc3cc(C)ccn23)C1 [US20240034729, Compound 63] | < 1 |
| COC(=O)N1CCO[C@@H](Cc2c(-c3c(F)cc(NC4CCC(=O)C4)cc3F)nc3cc(C)ccn23)C1 (some centres undefined) [US20240034729, Compound 79] | < 0.1 |
| COC(=O)N1CCO[C@@H](Cc2c(-c3c(F)cc(NC(=O)C4(C#N)CC4)cc3F)nc3cc(C)ccn23)C1 [US20240034729, Compound 89] | < 0.1 |
| COC(=O)N1CCO[C@@H](Cc2c(-c3c(F)cc(NC(=O)C4(C(=O)OC)CC4)cc3F)nc3cc(C)ccn23)C1 [US20240034729, Compound 97] | < 1 |
| COC(=O)N1CCO[C@@H](Cc2c(-c3c(F)cc(-c4nn[nH]n4)cc3F)nc3cc(C)ccn23)C1 [US20240034729, Compound 104] | < 1 |
| COC(=O)N1CCO[C@@H](Cc2c(-c3c(F)cc(-n4cnc(C(N)=O)c4)cc3F)nc3cc(C)ccn23)C1 [US20240034729, Compound 110] | < 0.1 |
| COC(=O)N1CCO[C@@H](Cc2c(-c3c(F)cc(-c4nc(C(C)(C)O)co4)cc3F)nc3cc(C)ccn23)C1 [US20240034729, Compound 119] | < 0.1 |
| COC(=O)N1CCO[C@@H](Cc2c(-c3c(F)cc(-c4nc(C5(C(N)=O)CC5)c[nH]4)cc3F)nc3cc(C)ccn23)C1 [US20240034729, Compound 133] | < 0.1 |
| COC(=O)N1CCO[C@@H](Cc2c(-c3c(F)cc(-c4nc(C5(C#N)CC5)c[nH]4)cc3F)nc3cc(C)ccn23)C1 [US20240034729, Compound 144] | < 0.1 |
| COC(=O)N1CCO[C@@H](Cc2c(-c3c(F)cc(-c4ccc(C(N)=O)cn4)cc3F)nc3cc(C)ccn23)C1 [US20240034729, Compound 146] | < 1 |
| COC(=O)N1CCO[C@@H](Cc2c(-c3c(F)cc(-c4ccc(O)cn4)cc3F)nc3cc(C)ccn23)C1 [US20240034729, Compound 147] | < 0.1 |
| CCC(=O)c1ccn(-c2cc(F)c(-c3nc4cc(C)ccn4c3C[C@H]3CN(C(=O)OC)CCO3)c(F)c2)n1 [US20240034729, Compound 164] | < 0.1 |
| COC(=O)N1CCO[C@@H](Cc2c(-c3c(F)cc(N4CC=CC4=O)cc3F)nc3cc(C)ccn23)C1 [US20240034729, Compound 169] | < 0.01 |
